Laboratory results published in patent US11136317B2, “NADPH oxidase 4 inhibitors” (ACTELION PHARMACEUTICALS LTD, priority 2015, dated 2021).

Legend:
human NOX4 = molecular target: T1, human NOX4 (Homo sapiens, UniProt Q9NPH5); assay: Amplex Red activity assay (cellular H2O2 formation in hNOX4 T-REx-293 cells); assay type: cell-based; details: tet-induced 24 h, extracellular H2O2 by Amplex Red, 60 min 25° C., geometric mean if determined several times
T1 construct: The full-length human NOX4 (NM_016931.3) transcript was cloned; expressed in transfected cells
T1 sequence (Q9NPH5 1-578): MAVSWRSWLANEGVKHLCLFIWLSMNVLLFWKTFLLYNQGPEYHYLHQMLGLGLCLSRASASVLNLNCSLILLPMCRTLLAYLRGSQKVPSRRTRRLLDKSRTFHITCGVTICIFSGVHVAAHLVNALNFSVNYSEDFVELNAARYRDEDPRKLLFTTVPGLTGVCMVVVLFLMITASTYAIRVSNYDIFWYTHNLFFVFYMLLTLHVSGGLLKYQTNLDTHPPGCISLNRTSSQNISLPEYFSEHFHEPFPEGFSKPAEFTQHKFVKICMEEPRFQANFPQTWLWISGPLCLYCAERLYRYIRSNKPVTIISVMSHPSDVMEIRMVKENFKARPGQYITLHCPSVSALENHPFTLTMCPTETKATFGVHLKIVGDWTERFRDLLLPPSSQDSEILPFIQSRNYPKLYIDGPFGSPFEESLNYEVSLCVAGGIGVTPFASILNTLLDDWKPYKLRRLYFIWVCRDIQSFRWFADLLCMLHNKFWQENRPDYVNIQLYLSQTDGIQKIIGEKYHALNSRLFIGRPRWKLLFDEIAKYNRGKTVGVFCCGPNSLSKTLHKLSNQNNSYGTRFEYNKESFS
T1 sequence (P13498 1-195 partner): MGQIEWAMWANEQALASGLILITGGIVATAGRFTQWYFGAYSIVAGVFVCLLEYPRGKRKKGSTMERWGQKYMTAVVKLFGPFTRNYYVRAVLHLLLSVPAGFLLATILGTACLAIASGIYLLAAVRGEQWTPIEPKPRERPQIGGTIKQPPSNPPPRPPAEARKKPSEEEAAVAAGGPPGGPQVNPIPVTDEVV
Method in brief: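 Tet-induced (1 μg/mL, 24 h) HEK293 T-REx cells stably expressing full-length human NOX4, 20 000 cells/well, exposed to compounds (10 concentrations, 50 μM to 100 nM; 1.25% DMSO) for 60 min at 25°C. Extracellular H2O2 detected by Amplex Red resorufin fluorescence (ex 550/em 600 nm) versus vehicle; IC50 calculated.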

[1] = molecular target: horseradish peroxidase / H2O2 (Armoracia rusticana, UniProt P00433); assay: Amplex Red counter screen assay (cells replaced by H2O2); assay type: biochemical; details: counter screen: H2O2-generating cells replaced by 1562.5 nM H2O2 in 1×PBS; read-out: IC50 Control
Method: In order to identify compounds that interfere with the activity assay either by inhibiting the activity of horseradish peroxidase or by directly interacting with the formed H2O2 a counter screen assay was established. This control assay is almost identical to the described Amplex Red activity assay with the only difference that the H2O2— generating cells are replaced by 1562.5 nM H2O2 in 1×PBS.

Sequence of horseradish peroxidase / H2O2 (P00433 31-338): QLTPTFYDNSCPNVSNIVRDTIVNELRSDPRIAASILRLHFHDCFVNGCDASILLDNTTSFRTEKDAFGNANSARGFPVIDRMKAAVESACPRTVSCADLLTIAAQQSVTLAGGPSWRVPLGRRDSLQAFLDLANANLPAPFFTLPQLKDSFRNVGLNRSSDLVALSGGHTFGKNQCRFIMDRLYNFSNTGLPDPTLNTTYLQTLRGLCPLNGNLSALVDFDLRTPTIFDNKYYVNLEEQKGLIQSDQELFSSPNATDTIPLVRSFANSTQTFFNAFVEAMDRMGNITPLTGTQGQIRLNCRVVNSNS

Substance | IC50 (human NOX4) [µM] | IC50 [1] [µM]
2,3-Dihydro-benzofuran-5-carboxylic acid (2-dimethylamino-benzothiazol-5-yl)-amide [Example 86] | 2.68 | > 50
2,3-Dihydro-benzofuran-5-carboxylic acid [2-(1-oxa-7-aza-spiro[3.5]non-7-yl)-benzooxazol-5-yl]-amide [Example 28] | 0.695 | > 50
